Drawing on patent US9718792B2, “Isoxazoline hydroxamic acid derivatives as LpxC inhibitors” (priority 2014, dated 2017), this text covers IC50 and MIC for 18 compounds.

Values after ≈ are worked out from the molar mass of the structure shown.

One assay concerns the target P. aeruginosa LpxC (Pseudomonas aeruginosa (strain ATCC 15692 / DSM 22644 / CIP 104116 / JCM 14847 / LMG 12228 / 1C / PRS 101 / PAO1), UniProt P47205). The experiment in a line: P. aeruginosa LpxC Inhibition Assay. Type of assay: biochemical. To be noted: 1 nM P. aeruginosa LpxC, 2 μM substrate, LC-MS/MS; read-out: PA LpxC IC50. In a few lines:
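Compounds pre-incubated 30 min at room temperature with 1 nM LpxC, then 2 μM UDP-3-O-(R-3-hydroxydecanoyl)-GlcNAc added; 20 min reaction in 50 mM sodium phosphate pH 7.5, 0.005% Triton X-100, quenched with HOAc. Product quantified by LC-MS/MS against calibration curve; IC50 from four-parameter logistic fit.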

The next assay has as its system P. aeruginosa PAO1. The experiment in a line: Susceptibility Testing (MIC, broth microdilution). The assay is classed as cell-based, Pseudomonas aeruginosa. The settings on record: Pseudomonas aeruginosa, PAO1, 20 h, P. aeruginosa PAO1, broth microdilution, 20 hours; read-out: PAO1 MIC. In a few lines:
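Broth microdilution per CLSI in cation-adjusted Mueller-Hinton broth, inoculum ~5×10^5 CFU/mL, two-fold compound dilutions (1% DMSO final). Plates incubated 20 h in ambient air at 35° C. MIC is the lowest concentration preventing visible growth, confirmed by OD 600 nm reading.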
For orientation: Broth dilution looks for growth in wells or tubes with falling amounts of substance.

What is called IC50 is the concentration that gives 50% inhibition. Usually MIC stands for the lowest concentration found to suppress growth. Consider `C[C@@H](O)Cc1cc(F)c(-c2ccc(C3=NO[C@@H](C[C@](C)(C(=O)NO)S(C)(=O)=O)C3)cc2F)c(F)c1` [Compound 116, (R)—N-hydroxy-2-methyl-2-(methylsulfonyl)-3-((R)-3-(2,2′,6′-trifluoro-4′-((R)-2-hydroxypropyl)-[1,1′-biphenyl]-4-yl)-4,5-dihydroisoxazol-5-yl) propanamide], for which the IC50 on P. aeruginosa LpxC was below 0.5 nM. Further, the MIC in the assay on P. aeruginosa PAO1 was determined as 0.5 µg/mL (≈ 0.972 µM).

For the compound `C[C@@](C[C@H]1CC(c2ccc(-c3ccc(C(O)CCO)cc3)cc2)=NO1)(C(=O)NO)S(C)(=O)=O` (stereo partly drawn) [Compound 96, (2R)-3-((5R)-3-(4′-(1,3-dihydroxypropyl)-[1,1′-biphenyl]-4-yl)-4,5-dihydroisoxazol-5-yl)-N-hydroxy-2-methyl-2-(methylsulfonyl)propanamide], at P. aeruginosa LpxC, the IC50 is below 0.5 nM. For the same compound, the MIC in the assay on P. aeruginosa PAO1 came out at 0.5 µg/mL (≈ 1.05 µM).

For the compound `C[C@@](C[C@H]1CC(c2ccc(-c3ccncc3)cc2)=NO1)(C(=O)NO)S(C)(=O)=O` [Compound 78, (R)-3-((R)-3-(4-(pyridin-4-yl)phenyl)-4,5-dihydroisoxazol-5-yl)-N-hydroxy-2-methyl-2-(methylsulfonyl)propanamide], on P. aeruginosa LpxC, the IC50 was below 0.5 nM. Moreover, the MIC in the assay with P. aeruginosa PAO1 came out at 1 µg/mL (≈ 2.48 µM).

For the compound `COCC1CC(C#Cc2ccc(C3=NO[C@@H](C[C@](C)(C(=O)NO)S(C)(=O)=O)C3)cc2)C1` (stereo partly drawn) [Compound 52, (R)—N-hydroxy-3-((R)-3-(4-((3-(methoxymethyl)cyclobutyl)ethynyl)phenyl)-4,5-dihydroisoxazol-5-yl)-2-methyl-2-(methylsulfonyl)propanamide], on P. aeruginosa LpxC, the IC50 turned out to be 0.8 nM. In addition, the MIC in the assay on P. aeruginosa PAO1 was determined as 1 µg/mL (≈ 2.23 µM).

With `Cc1ccc(-c2ccc(C3=NO[C@@H](C[C@](C)(C(=O)NO)S(C)(=O)=O)C3)cc2)cn1` [Compound 67, (R)—N-hydroxy-2-methyl-3-((R)-3-(4-(6-methylpyridin-3-yl)phenyl)-4,5-dihydroisoxazol-5-yl)-2-(methylsulfonyl) propanamide], at P. aeruginosa LpxC, the IC50 was below 0.5 nM. In the assay on P. aeruginosa PAO1, the MIC amounted to 0.35 µg/mL (≈ 0.838 µM).

In the case of `COc1ccc(-c2ccc(C3=NO[C@@H](C[C@](C)(C(=O)NO)S(C)(=O)=O)C3)cc2)cn1` [Compound 66, (R)—N-hydroxy-3-((R)-3-(4-(6-methoxypyridin-3-yl)phenyl)-4,5-dihydroisoxazol-5-yl)-2-methyl-2-(methylsulfonyl)propanamide], the IC50 on P. aeruginosa LpxC was below 0.5 nM. For the same compound, the MIC in the assay on P. aeruginosa PAO1 was found to be 0.25 µg/mL (≈ 0.577 µM).

In the case of `C[C@@](C[C@H]1CC(c2ccc(-c3cccc(CO)c3)cc2)=NO1)(C(=O)NO)S(C)(=O)=O` [Compound 57, (R)—N-hydroxy-3-((R)-3-(3′-(hydroxymethyl)-[1,1′-biphenyl]-4-yl)-4,5-dihydroisoxazol-5-yl)-2-methyl-2-(methylsulfonyl)], the IC50 on P. aeruginosa LpxC is below 0.5 nM. Also, the MIC in the assay with P. aeruginosa PAO1 was found to be 1 µg/mL (≈ 2.31 µM).

Turning to `C[C@@](C[C@H]1CC(c2ccc(-c3ccc(CN4CCOCC4)cc3)cc2)=NO1)(C(=O)NO)S(C)(=O)=O` [Compound 47, (R)—N-hydroxy-2-methyl-2-(methylsulfonyl)-3-((R)-3-(4′-(morpholinomethyl)-[1,1′-biphenyl]-4-yl)-4,5-dihydroisoxazol-5-yl)], the IC50 on P. aeruginosa LpxC came out at 0.6 nM. For the same compound, in the assay with P. aeruginosa PAO1, the MIC worked out at 0.35 µg/mL (≈ 0.698 µM).

As for `Cc1cc(C[C@@H](C)O)ccc1-c1ccc(C2=NO[C@@H](C[C@](C)(C(=O)NO)S(C)(=O)=O)C2)cc1` [Compound 90, (R)-3-((R)-3-(2′-methyl-4′-((R)-2-hydroxypropyl)-[1,1′-biphenyl]-4-yl)-4,5-dihydroisoxazol-5-yl)-N-hydroxy-2-methyl-2-(methylsulfonyl) propanamide], the IC50 on P. aeruginosa LpxC is below 0.5 nM. For the same compound, in the assay on P. aeruginosa PAO1, the MIC worked out at 0.5 µg/mL (≈ 1.05 µM).

For `C/C=C(\F)c1ccc(C2=NO[C@@H](C[C@](C)(C(=O)NO)S(C)(=O)=O)C2)cc1` [Compound 29, (R)-3-((R)-3-(4-((Z)-1-fluoroprop-1-en-1-yl)phenyl)-4,5-dihydroisoxazol-5-yl)-N-hydroxy-2-methyl-2-(methylsulfonyl)propanamide], the IC50 at P. aeruginosa LpxC was 0.6 nM. Also, the MIC with P. aeruginosa PAO1 stood at 0.125 µg/mL (≈ 0.325 µM).

In the case of `CC(CC1CC(c2ccc(-c3ccccc3)cc2)=NO1)(C(=O)NO)S(C)(=O)=O` (single isomer, unassigned) [Compound 3-B, 3-(3-([1,1′-biphenyl]-4-yl)-4,5-dihydroisoxazol-5-yl)-N-hydroxy-2-methyl-2-(methylsulfonyl)propanamide], the IC50 at P. aeruginosa LpxC is 1 nM. In the assay with P. aeruginosa PAO1, the MIC was 0.25 µg/mL (≈ 0.621 µM).

With `CC(C)(O)[C@H]1C[C@@H](C#Cc2ccc(C3=NO[C@@H](C[C@](C)(C(=O)NO)S(C)(=O)=O)C3)cc2)C1` [Compound 39B, (R)—N-hydroxy-3-((R)-3-(4-(((1 s,3S)-3-(2-hydroxypropan-2-yl)cyclobutyl)ethynyl)phenyl)-4,5-dihydroisoxazol-5-yl)-2-methyl-2-(methylsulfonyl)propanamide], on P. aeruginosa LpxC, the IC50 was found to be 2 nM. Besides, in the assay with P. aeruginosa PAO1, the minimum inhibitory concentration (MIC) came to 1 µg/mL (≈ 2.16 µM).

With `Cc1cc(CO)ccc1-c1ccc(C2=NO[C@@H](C[C@](C)(C(=O)NO)S(C)(=O)=O)C2)cc1` [Compound 87, (R)—N-hydroxy-3-((R)-3-(4′-(hydroxymethyl)-2′-methyl-[1,1′-biphenyl]-4-yl)-4,5-dihydroisoxazol-5-yl)-2-methyl-2-(methylsulfonyl)propanamide], the IC50 at P. aeruginosa LpxC is below 0.5 nM. Also, the MIC with P. aeruginosa PAO1 turned out to be 0.25 µg/mL (≈ 0.56 µM).

As for `C[C@@](C[C@H]1CC(c2ccc(-c3ccc([C@@H](O)CO)cc3)cc2)=NO1)(C(=O)NO)S(C)(=O)=O` [Compound 95, (R)-3-((R)-3-(4′-((R)-1,2-dihydroxyethyl)-[1,1′-biphenyl]-4-yl)-4,5-dihydroisoxazol-5-yl)-N-hydroxy-2-methyl-2-(methylsulfonyl)propanamide], the IC50 at P. aeruginosa LpxC is below 0.1 nM. Also, the MIC with P. aeruginosa PAO1 stood at 0.25 µg/mL (≈ 0.541 µM).

`C[C@@](C[C@H]1CC(c2ccc(-n3nccn3)cc2)=NO1)(C(=O)NO)S(C)(=O)=O` [Compound 43, (R)-3-((R)-3-(4-(2H-1,2,3-triazol-2-yl)phenyl)-4,5-dihydroisoxazol-5-yl)-N-hydroxy-2-methyl-2-(methylsulfonyl)propanamide]: the IC50 on P. aeruginosa LpxC came out at 5 nM. For the same compound, the MIC in the assay with P. aeruginosa PAO1 was 1.4 µg/mL (≈ 3.56 µM).

As for `C[C@@](C[C@H]1CC(c2ccc(-c3cnsc3)cc2)=NO1)(C(=O)NO)S(C)(=O)=O` [Compound 92, (R)—N-hydroxy-3-((R)-3-(4-(isothiazol-4-yl)phenyl)-4,5-dihydroisoxazol-5-yl)-2-methyl-2-(methylsulfonyl)propanamide], the IC50 at P. aeruginosa LpxC was below 0.5 nM. In addition, the MIC in the assay on P. aeruginosa PAO1 amounted to 0.35 µg/mL (≈ 0.855 µM).

In the case of `CC(C)(O)c1ccc(-c2ccc(C3=NO[C@@H](C[C@](C)(C(=O)NO)S(C)(=O)=O)C3)cc2F)cc1` [Compound 110, (R)-3-((R)-3-(2-fluoro-4′-(2-hydroxypropan-2-yl)-[1,1′-biphenyl]-4-yl)-4,5-dihydroisoxazol-5-yl)-N-hydroxy-2-methyl-2-(methylsulfonyl)propanamide], at P. aeruginosa LpxC, the IC50 was below 0.5 nM. For the same compound, the MIC in the assay on P. aeruginosa PAO1 amounted to 0.5 µg/mL (≈ 1.04 µM).

Regarding `CC(CC1CC(c2ccc(C#CC3CC3)c(F)c2)=NO1)(C(=O)NO)S(C)(=O)=O` (single isomer, unassigned) [Compound 13-B, 3-(3-(4-(cyclopropylethynyl)-3-fluorophenyl)-4,5-dihydroisoxazol-5-yl)-N-hydroxy-2-methyl-2-(methylsulfonyl)propanamide], the IC50 at P. aeruginosa LpxC worked out at 1 nM. In the assay on P. aeruginosa PAO1, the MIC is 1 µg/mL (≈ 2.45 µM).
